In one assay the target is T1, human MR (Homo sapiens, UniProt P08235).
T1 construct: The full length human MR gene is cloned from a human kidney or human brain cDNA library; made in house; host or cells: SF9 insect cells (baculovirus)
T1 sequence (P08235 1-984): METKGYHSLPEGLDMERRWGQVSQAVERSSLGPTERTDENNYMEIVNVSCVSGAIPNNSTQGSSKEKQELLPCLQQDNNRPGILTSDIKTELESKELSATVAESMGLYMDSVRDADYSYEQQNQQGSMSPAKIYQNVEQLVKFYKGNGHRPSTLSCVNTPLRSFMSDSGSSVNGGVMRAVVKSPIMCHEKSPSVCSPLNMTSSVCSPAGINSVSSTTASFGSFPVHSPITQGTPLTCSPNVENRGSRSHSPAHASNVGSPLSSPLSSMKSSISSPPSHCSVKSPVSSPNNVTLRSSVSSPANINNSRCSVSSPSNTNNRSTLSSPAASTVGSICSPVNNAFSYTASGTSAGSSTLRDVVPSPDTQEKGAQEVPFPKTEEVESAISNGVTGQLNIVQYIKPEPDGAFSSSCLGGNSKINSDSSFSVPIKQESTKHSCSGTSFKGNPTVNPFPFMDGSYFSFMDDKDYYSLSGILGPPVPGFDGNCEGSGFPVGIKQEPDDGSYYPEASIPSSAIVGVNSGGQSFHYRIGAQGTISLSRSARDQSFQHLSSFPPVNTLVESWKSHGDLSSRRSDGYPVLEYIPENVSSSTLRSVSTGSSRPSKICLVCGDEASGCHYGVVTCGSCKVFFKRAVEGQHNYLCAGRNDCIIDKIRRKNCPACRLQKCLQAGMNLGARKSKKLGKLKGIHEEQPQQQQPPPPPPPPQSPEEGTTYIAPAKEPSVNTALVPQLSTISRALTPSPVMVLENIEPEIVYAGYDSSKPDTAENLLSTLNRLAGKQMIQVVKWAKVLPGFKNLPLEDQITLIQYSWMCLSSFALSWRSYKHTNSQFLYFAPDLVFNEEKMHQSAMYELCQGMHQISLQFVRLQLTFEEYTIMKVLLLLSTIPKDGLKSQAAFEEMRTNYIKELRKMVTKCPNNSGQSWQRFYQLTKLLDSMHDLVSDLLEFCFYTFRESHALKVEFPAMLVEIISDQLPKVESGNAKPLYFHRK
As to the kind of experiment: Mineralocorticoid Receptor Binding Assay (Method 1). The following applies: [3H]-aldosterone. The procedure:
The full length human MR gene is cloned from a human kidney or human brain cDNA library. Briefly, using synthetic oligonucleotide primers (Eli Lilly and Company, Indianapolis) directed to nucleotides 20-54 and 3700-3666 of the human MR, polymerase chain reaction (PCR) is performed under standard conditions using a human cDNA library. The PCR reaction is performed in a final volume of 50 μl containing about 1 μl of a 50× stock solution of polymerase; about 1 μl of a 50× stock solution of DNTP; about 5 μl of an appropriate PCR buffer; about 1 μl of each primer; about 5 μl of a H. kidney or H. brain cDNA library; and about 36 μl of water. The reaction is allowed to denature for about 30 seconds at 95 degrees Celsius, anneal for about 30 seconds at 55 degrees Celsius, and extend for about 5 minutes at 72 degrees Celsius, the sequence being repeated for a total of about 35 cycles. The desired PCR product (3.68 Kb) is confirmed by gel electrophoresis and subsequently cut from the gel and stored at about −20 degrees Celsius until extraction. To extract the cDNA product from the agarose gel, the QIAEX II Gel Extraction protocol (QIAGEN, Inc.) is employed according to the manufacturer's instructions. Following extraction, the MR cDNA is cloned into an appropriate cloning vector (Zero Blunt TOPO PCR Cloning Kit (Invitrogen, Inc.) and a pAcHLT-baculovirus transfer vector (B.D./Pharminogen), then expressed in SF9 insect cells, essentially according to manufacturer's instructions. Sf9 cells are grown at a scale where gram quantity cell pellets are obtained for subsequent use in the MR binding assay. Harvested cell pellets are lysed by repeated freeze-thaw cycles (about 4) in a suitable lysis buffer then centrifuged at about 1×10^3 G (with the supernatant being saved for future assays).
MR binding assays are performed in a final total volume of about 250 μl containing about 20-25 μg of protein and 0.5 nM of [^3H]-aldosterone plus varying concentrations of test compound or vehicle. The assay binding buffer consists of 30 mM sodium molybdate, 30 mM of TRIS-HCl, 5 mM sodium phosphate, 5 mM sodium pyrophosphate, and about 10% glycerol, pH=7.5.
Briefly, assays are prepared at RT in 96-well Falcon 3072 plates, each well containing 210 μl of binding buffer, 10 μl of [^3H]-aldosterone, 10 μl of test compound/vehicle, and 20 μl of the resuspended receptor protein extract. Incubations are carried out at 4 degrees Celsius with shaking for about 16 hours. 200 μl aliquots of each incubation are filtered onto Millipore HA 0.45 micron 96-well filter plates, pre-moistened with cold 30 mM TRIS-HCl. The filter plates are suctioned dry with vacuum and immediately washed 3× with cold 30 mM TRIS-HCl. The plates are then punched out and the amount of receptor-ligand complex is determined by liquid scintillation counting using 4 ml of Ready Protein Plus™ liquid scintillation cocktail.

The next assay concerns the target T2, glucocorticoid receptor (Homo sapiens, UniProt P04150).
T2 construct: containing 50-200 ug of A549 cell extract and 1.86 nM [^3H]-dexamethasone; host or cells: A549 human lung epithelial cells
T2 sequence (P04150 1-777): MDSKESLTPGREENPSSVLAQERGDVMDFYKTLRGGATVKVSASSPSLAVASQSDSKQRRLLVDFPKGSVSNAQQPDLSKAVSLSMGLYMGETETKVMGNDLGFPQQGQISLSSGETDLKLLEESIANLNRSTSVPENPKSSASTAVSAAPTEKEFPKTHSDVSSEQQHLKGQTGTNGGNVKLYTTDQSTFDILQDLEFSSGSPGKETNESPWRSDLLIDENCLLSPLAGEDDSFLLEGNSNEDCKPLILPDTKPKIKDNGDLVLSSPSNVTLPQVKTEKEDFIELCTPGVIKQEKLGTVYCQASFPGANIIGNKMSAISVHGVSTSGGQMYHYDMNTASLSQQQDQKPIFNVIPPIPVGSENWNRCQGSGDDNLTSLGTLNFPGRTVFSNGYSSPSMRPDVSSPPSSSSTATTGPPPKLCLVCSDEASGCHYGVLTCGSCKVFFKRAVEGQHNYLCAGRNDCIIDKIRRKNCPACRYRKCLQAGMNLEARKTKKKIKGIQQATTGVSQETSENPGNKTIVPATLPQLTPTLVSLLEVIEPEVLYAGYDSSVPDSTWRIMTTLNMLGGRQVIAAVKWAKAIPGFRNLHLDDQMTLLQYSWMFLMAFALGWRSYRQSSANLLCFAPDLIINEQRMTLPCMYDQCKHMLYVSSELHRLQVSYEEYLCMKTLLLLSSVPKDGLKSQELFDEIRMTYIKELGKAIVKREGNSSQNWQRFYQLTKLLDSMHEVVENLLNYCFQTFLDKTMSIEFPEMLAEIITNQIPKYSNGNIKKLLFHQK
As to the kind of experiment: Glucocorticoid Receptor Binding Assay (Method 1). Conditions: A549 cell extract, [3H]-dexamethasone, read-out: GR Ki. The protocol: A549 human lung epithelial cells (ATCC) are grown at a scale where gram quantity cell pellets are obtained. Harvested cell pellets are washed twice in cold phosphate buffered saline, centrifuged, and resuspended in cold assay binding buffer. The assay binding buffer consists of 10% glycerol, 50 mM Tris-HCl (pH7.2), 75 mM sodium chloride, 1.5 mM magnesium chloride, 1.5 mM EDTA, and 10 mM sodium molybdate. Cell suspensions were lysed via sonication, centrifuged, and the “extract” supernatant is snap frozen and stored at −80 C until needed.
GR binding assays are performed in a final volume of 140 ul containing 50-200 ug of A549 cell extract and 1.86 nM [^3H]-dexamethasone (Amersham) plus varying concentrations of test compound or vehicle. Briefly, assays are prepared at RT in 96-well Fisher 3356 plates, each well containing 100 ul of A549 cell extract, 20 ul of [^3H]-dexamethasone, and 20 ul of test compound/vehicle. Incubations are carried out at 4 degrees Celsius for 16 hours. After incubation, 70 ul of 3× dextran-coated charcoal solution is added to each reaction, mixed, and incubated for 8 minutes at RT. […] 200 ul of Microscint-20 scinillant (Packard Instruments) is added to each well and amount of receptor bound radioligand is determined using Packard Instruments TopCount instrument.

The conditions of assay [1]: in combination with standard CHF therapy, patients suffering from advanced CHF; cited from earlier work.

The text below walks through data of patent US20070037788A1, “Tricyclic steroid hormone nuclear receptor modulators” (Eli Lilly and Company, priority 2003, published 2007).

Usually Ki stands for the dissociation constant of the complex between target and ligand, obtained from inhibition or displacement. Turning to `CN(C)CCn1c(=O)[nH]c2cc(/C=C3\c4ccccc4COc4cc(F)ccc43)ccc21` [Example 6], the figures for the Ki at human MR and on glucocorticoid receptor were less than 500 nM and less than 10000 nM, respectively.
Molecule `CN1CC[C@@H](n2c(=O)[nH]c3cc(/C=C4/c5ccc(F)cc5OCc5c(F)cccc54)ccc32)C1` [Example 47] came in with a Ki on human MR of less than 500 nM.
Still for that read-out and setting: in the case of `O=c1[nH]c2cc(C=C3c4ccc(F)cc4CCc4cc(F)ccc43)ccc2n1CCCN1CCOCC1` [Example 48] it was less than 500 nM; in that of `O=c1[nH]c2cc(C=C3c4ccc(F)cc4CCc4cc(F)ccc43)ccc2n1CCN1CCNCC1` [Example 49], less than 500 nM; in that of `O=c1[nH]c2cc(C=C3c4ccc(F)cc4CCc4cc(F)ccc43)ccc2n1CCN1CCCC1` [Example 50], less than 500 nM.
In turn, `CN(C)CCn1c(=O)[nH]c2cc(C=C3c4ccc(F)cc4CCc4cc(F)ccc43)ccc21` [Example 51] yielded a Ki at human MR of less than 500 nM.
Take `CN1CCN(CCn2c(=O)[nH]c3cc(C=C4c5ccc(F)cc5CCc5cc(F)ccc54)ccc32)CC1` [Example 52]: the Ki on human MR was less than 500 nM.
For the molecule `CC(=O)S[C@@H]1CC2=CC(=O)CC[C@]2(C)[C@H]2CC[C@@]3(C)[C@@H](CC[C@@]34CCC(=O)O4)[C@H]12` [spironolactone], in assay [1], the “reduced cardiac related mortality” value is recorded as 30% and the “reduced frequency of hospitalization” value was 35%.
